Assay results as given in patent US9643967B2, “Pyrrolo[3,2-c]pyridine derivatives as TLR inhibitors” (TAKEDA PHARMACEUTICAL COMPANY LIMITED, priority 2013, dated 2017).

Target: T1, hTLR9 (Homo sapiens, UniProt Q9NR96)
T1 construct: expressed in transfected cells; host or cells: HEK-Blue-hTLR9 cells (HEK293)
T1 sequence (Q9NR96 26-1032): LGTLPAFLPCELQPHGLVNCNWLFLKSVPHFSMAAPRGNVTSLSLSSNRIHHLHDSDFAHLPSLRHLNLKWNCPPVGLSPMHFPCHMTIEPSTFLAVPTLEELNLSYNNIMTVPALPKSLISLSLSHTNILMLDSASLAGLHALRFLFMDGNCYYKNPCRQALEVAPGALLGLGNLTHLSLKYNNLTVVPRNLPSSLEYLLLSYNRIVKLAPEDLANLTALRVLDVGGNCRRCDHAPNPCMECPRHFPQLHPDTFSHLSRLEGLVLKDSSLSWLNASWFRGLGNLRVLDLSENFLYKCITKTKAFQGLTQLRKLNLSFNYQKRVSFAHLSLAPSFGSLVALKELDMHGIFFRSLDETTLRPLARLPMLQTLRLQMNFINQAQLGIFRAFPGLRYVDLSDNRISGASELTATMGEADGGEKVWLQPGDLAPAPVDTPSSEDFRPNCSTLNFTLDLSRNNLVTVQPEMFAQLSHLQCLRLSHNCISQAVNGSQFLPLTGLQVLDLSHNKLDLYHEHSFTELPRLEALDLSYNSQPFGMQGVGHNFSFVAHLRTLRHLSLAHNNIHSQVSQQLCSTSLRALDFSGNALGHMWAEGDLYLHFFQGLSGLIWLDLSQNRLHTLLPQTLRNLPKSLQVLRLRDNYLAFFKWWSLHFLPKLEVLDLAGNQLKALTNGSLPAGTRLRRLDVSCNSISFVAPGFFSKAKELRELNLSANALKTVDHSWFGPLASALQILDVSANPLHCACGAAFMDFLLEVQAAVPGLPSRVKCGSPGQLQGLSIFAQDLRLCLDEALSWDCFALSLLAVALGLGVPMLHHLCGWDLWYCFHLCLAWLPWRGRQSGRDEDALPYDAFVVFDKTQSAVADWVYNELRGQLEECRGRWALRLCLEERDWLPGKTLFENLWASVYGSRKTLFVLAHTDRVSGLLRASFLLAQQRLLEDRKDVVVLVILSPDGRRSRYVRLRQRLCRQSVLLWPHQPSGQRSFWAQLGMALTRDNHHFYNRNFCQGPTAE
Test: hTLR9 antagonism (SEAP inhibition assay) in HEK-Blue-hTLR9 (HEK293) cells, ODN-2006 stimulated
Format: cell-based
Settings: 1 μM; SEAP, HEK-Blue-hTLR9 cells

| hTLR9 inhibitory activity (% at 1 μM) | SMILES |
| --- | --- |
| 95.8% | Cc1cc2c(cc(CCN3CCOCC3)n2C)c(C2CCC(N3CCN(C(C)C)CC3)CC2)n1 (centres unmarked) [Example B27, 4-[2-[4-[4-(4-isopropylpiperazin-1-yl)cyclohexyl]-1,6-dimethyl-pyrrolo[3,2-c]pyridin-2-yl]ethyl]morpholine] |

Same assay, conditions: HEK-Blue hTLR9, 1 μM; SEAP, HEK-Blue-hTLR9 cells; read-out: hTLR9 inhibitory activity (% at 1 μM)

| SMILES | inhibition at 1 µM |
| --- | --- |
| Cc1nc(-c2ccc(N3CCN(C(C)C)CC3)cc2)c2cc(CCN3CCCC3)[nH]c2c1C [Example B10, 4-[4-(4-isopropylpiperazin-1-yl)phenyl]-6,7-dimethyl-2-(2-pyrrolidin-1-ylethyl)-1H-pyrrolo[3,2-c]pyridine] | 93.1% |
| Cc1cc2c(cc(CCN3CCOCC3)n2C)c(-c2ccc(N3CCN(C(C)C)CC3)cc2)n1 [Example B11, 4-[2-[4-[4-(4-isopropylpiperazin-1-yl)phenyl]-1,6-dimethyl-pyrrolo[3,2-c]pyridin-2-yl]ethyl]morpholine] | 80% |
| Cc1cc2c(cc(CCN3CCOCC3)n2C)c(-c2ccc(N3CCN(C(C)C)CC3)c(F)c2)n1 [Example B14, 4-[2-[4-[3-fluoro-4-(4-isopropylpiperazin-1-yl)phenyl]-1,6-dimethyl-pyrrolo[3,2-c]pyridin-2-yl]ethyl]morpholine] | 88.7% |
| Cc1cc2c(cc(CCN3CCOCC3)n2C)c(-c2ccc(N3CCN(C(C)C)CC3)cc2C)n1 [Example B15, 4-[2-[4-[4-(4-isopropylpiperazin-1-yl)-2-methyl-phenyl]-1,6-dimethyl-pyrrolo[3,2-c]pyridin-2-yl]ethyl]morpholine] | 93.3% |
| Cc1cc2c(cc(CCN3CCOCC3)n2C)c(-c2ccc(N3CCN(C(C)C)CC3)c(C)c2)n1 [Example B16, 4-[2-[4-[4-(4-isopropylpiperazin-1-yl)-3-methyl-phenyl]-1,6-dimethyl-pyrrolo[3,2-c]pyridin-2-yl]ethyl]morpholine] | 91% |
| Cc1cc2c(cc(CCN3CCOCC3)n2C)c(-c2ccc(N3CCN(C(C)C)CC3)cc2C(F)(F)F)n1 [Example B17, 4-[2-[4-[4-(4-isopropylpiperazin-1-yl)-2-(trifluoromethyl)phenyl]-1,6-dimethyl-pyrrolo[3,2-c]pyridin-2-yl]ethyl]morpholine] | 91.5% |
| Cc1cc2c(cc(CCN3CCOCC3)n2C)c(-c2ccc(N3CCN(C(C)C)CC3)c(C(F)(F)F)c2)n1 [Example B18, 4-[2-[4-[4-(4-isopropylpiperazin-1-yl)-3-(trifluoromethyl)phenyl]-1,6-dimethyl-pyrrolo[3,2-c]pyridin-2-yl]ethyl]morpholine] | 99.3% |
| Cc1cc2c(cc(CCN3CCOCC3)n2C)c(-c2ccc(N3CCN(C(C)C)CC3)cc2F)n1 [Example B19, 4-[2-[4-[2-fluoro-4-(4-isopropylpiperazin-1-yl)phenyl]-1,6-dimethyl-pyrrolo[3,2-c]pyridin-2-yl]ethyl]morpholine] | 100% |
| COc1cc(N2CCN(C(C)C)CC2)ccc1-c1nc(C)cc2c1cc(CCN1CCOCC1)n2C [Example B20, 4-[2-[4-[4-(4-isopropylpiperazin-1-yl)-2-methoxy-phenyl]-1,6-dimethyl-pyrrolo[3,2-c]pyridin-2-yl]ethyl]morpholine] | 100% |
| Cc1cc2c(cc(CCN3CCOCC3)n2C)c(-c2cccc(N3CCN(C(C)C)CC3)c2)n1 [Example B21, 4-[2-[4-[3-(4-isopropylpiperazin-1-yl)phenyl]-1,6-dimethyl-pyrrolo[3,2-c]pyridin-2-yl]ethyl]morpholine] | 100% |
| COc1cc(-c2nc(C)cc3c2cc(CCN2CCOCC2)n3C)ccc1N1CCN(C(C)C)CC1 [Example B22, 4-[2-[4-[4-(4-isopropylpiperazin-1-yl)-3-methoxy-phenyl]-1,6-dimethyl-pyrrolo[3,2-c]pyridin-2-yl]ethyl]morpholine] | 99.7% |
| Cc1cc2c(cc(CCN3CCOCC3)n2C)c(-c2ccc(N3CCN(C(C)C)[C@@H](C)C3)cc2)n1 [Example B23, 4-[2-[4-[4-[(3S)-4-isopropyl-3-methyl-piperazin-1-yl]phenyl]-1,6-dimethyl-pyrrolo[3,2-c]pyridin-2-yl]ethyl]morpholine] | 99.2% |
| Cc1cc2c(cc(CCN3CCOCC3)n2C)c(C2CCC(N3CCN(C(C)C)CC3)CC2)n1 (centres unmarked) [Example B26, 4-[2-[4-[4-(4-isopropylpiperazin-1-yl)cyclohexyl]-1,6-dimethyl-pyrrolo[3,2-c]pyridin-2-yl]ethyl]morpholine] | 89.9% |
| Cc1cc2c(cc(CCN3CCOCC3)n2C)c(-c2ccc(C3CCN(C(C)C)CC3)cc2)n1 [Example B31, 4-[2-[4-[4-(1-isopropyl-4-piperidyl)phenyl]-1,6-dimethyl-pyrrolo[3,2-c]pyridin-2-yl]ethyl]morpholine] | 99.4% |

Next, values leading:

| inhibition at 1 µM | SMILES |
| --- | --- |
| 99.2% | CC(C)N1CCN(c2ccc(-c3nccc4[nH]c(CCCN5CCOCC5)cc34)cc2)CC1 [Example C1, 4-[3-[4-[4-(4-isopropylpiperazin-1-yl)phenyl]-1H-pyrrolo[3,2-c]pyridin-2-yl]propyl]morpholine] |
| 100% | CN1CCN(c2ccc(-c3nccc4[nH]c(CCCN5CCOCC5)cc34)cc2)CC1 [Example C2, 4-[3-[4-[4-(4-methylpiperazin-1-yl)phenyl]-1H-pyrrolo[3,2-c]pyridin-2-yl]propyl]morpholine] |
| 94.8% | Cc1cc2[nH]c(CCCN3CCOCC3)cc2c(-c2ccc(N3CCN(C(C)C)CC3)cc2)n1 [Example C3, 4-[3-[4-[4-(4-isopropylpiperazin-1-yl)phenyl]-6-methyl-1H-pyrrolo[3,2-c]pyridin-2-yl]propyl]morpholine] |
| 94.7% | Cc1cc2[nH]c(CCCN3CCCCC3)cc2c(-c2ccc(N3CCN(C(C)C)CC3)cc2)n1 [Example C5, 4-[4-(4-isopropylpiperazin-1-yl)phenyl]-6-methyl-2-[3-(1-piperidyl)propyl]-1H-pyrrolo[3,2-c]pyridine] |
| 99.1% | Cc1cc2c(cc(CCCN3CCOCC3)n2C)c(-c2ccc(N3CCN(C(C)C)CC3)cc2)n1 [Example C6, 4-[3-[4-[4-(4-isopropylpiperazin-1-yl)phenyl]-1,6-dimethyl-pyrrolo[3,2-c]pyridin-2-yl]propyl]morpholine] |
